For six compounds, max. amplitude, threshold and EC50 results are on record in patent publication US20110034369A1, “Agonists of Bitter Taste Receptors and Uses Thereof” (DEUTSCHES INSTITUT FUR ERNAHRUNGSFORSCHUNG POTSDAM-REHBRUCKE, priority 2004, published 2011).

Some results are limits rather than exact numbers.

Assay type in all cases: cell-based
One assay deals with T1, hTAS2R1 (Homo sapiens, UniProt Q9NYW7).
T1 construct: export tag: amino acids 1-45 of rat somatostatin receptor 3 (N); expressed in transfected cells; host or cells: HEK-293T cells stably expressing the chimeric G-protein subunit Galpha16gust44
T1 sequence (Q9NYW7 1-299): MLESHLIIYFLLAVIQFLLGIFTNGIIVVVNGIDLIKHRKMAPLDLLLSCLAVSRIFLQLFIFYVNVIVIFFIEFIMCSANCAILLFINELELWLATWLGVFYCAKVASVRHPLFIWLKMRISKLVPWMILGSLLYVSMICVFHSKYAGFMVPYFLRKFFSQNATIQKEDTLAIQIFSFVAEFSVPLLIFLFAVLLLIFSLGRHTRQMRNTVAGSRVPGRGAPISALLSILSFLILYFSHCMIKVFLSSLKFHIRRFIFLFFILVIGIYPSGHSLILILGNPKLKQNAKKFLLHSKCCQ
Put plainly: FLIPR calcium mobilization, hTAS2R1-transfected HEK-293T/Gα16gust44 cells. As to conditions: response of hTAS2R1, calcium signal; for threshold: Fluo4-AM, transiently transfected HEK-293T Gα16gust44; for EC50: dose-response. A general note: Calcium flux is commonly read through the fluorescence of an indicator in the cells.

A further assay concerns the target T2, hTAS2R3 (Homo sapiens, UniProt Q9NYW6).
T2 construct: export tag: amino acids 1-45 of rat somatostatin receptor 3 (N); expressed in transfected cells; host or cells: HEK-293T cells stably expressing the chimeric G-protein subunit Galpha16gust44
T2 sequence (Q9NYW6 1-316): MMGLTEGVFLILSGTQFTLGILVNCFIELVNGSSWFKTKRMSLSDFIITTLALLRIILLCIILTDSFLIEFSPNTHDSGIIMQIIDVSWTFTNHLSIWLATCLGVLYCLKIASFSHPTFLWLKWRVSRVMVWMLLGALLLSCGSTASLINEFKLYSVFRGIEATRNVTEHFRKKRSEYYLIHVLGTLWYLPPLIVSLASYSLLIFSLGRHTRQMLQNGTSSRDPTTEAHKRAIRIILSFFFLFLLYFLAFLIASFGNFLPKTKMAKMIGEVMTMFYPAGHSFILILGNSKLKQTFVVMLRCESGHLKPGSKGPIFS
Put plainly: FLIPR calcium mobilization, hTAS2R3-transfected HEK-293T/Gα16gust44 cells. As to conditions: response of hTAS2R3; calcium signal. As for the experimental part: (§1) Ligand screening using an automated fluorometric imaging plate reader (Molecular Devices) was essentially done as described (Bufe B. et al. (2002) Nature Genetics 32: 397-401). Briefly: The cells were seeded at a density of 70,000±10,000 cells per well in 96-well microtiter plates. The cDNA of hTAS2R1, hTASR3, hTASR7 and hTASR40 supplemented with an amino terminal export tag corresponding to amino acids 1-45 of rat somatostatin receptor 3 and a carboxy terminal HSV-tag was transiently transfected into HEK-293T cells stably expressing the chimeric G-protein subunit Gα16gust44 (Ueda T. et al. (2003) J. Neurosci. 23: 7376-7380) using Lipofectamine2000 (Invitrogen). Expression rates were determined to be 20% for hTAS2R1; 35% for hTAS2R3, 14% for hTAS2R7 and 29% for hTAS2R40 by indirect immunocyclochemistry using monoclonal anti-HSV antibodies (Novagen) and secondary anti-mouse IgG antibodies coupled to Alexa 488 (Molecular probes) see (FIG. 1). 24-32 hours after transfection, the cells were then loaded for 1 hour with the calcium sensitive dye Fluo4-AM (2 μg/ml in DMEM, Molecular Probes). […] Calcium mobilization was monitored by an automated fluorometric imaging plate reader (Molecular Devices). […] For dose-response curves, the obtained calcium signals were corrected for and normalized to background fluorescence ΔF/F=(F−F0)/F0 and baseline noise was subtracted.

The target of a further assay is T3, hTAS2R7 (Homo sapiens, UniProt Q9NYW3).
T3 construct: export tag: amino acids 1-45 of rat somatostatin receptor 3 (N); expressed in transfected cells; host or cells: HEK-293T cells stably expressing the chimeric G-protein subunit Galpha16gust44
T3 sequence (Q9NYW3 1-318): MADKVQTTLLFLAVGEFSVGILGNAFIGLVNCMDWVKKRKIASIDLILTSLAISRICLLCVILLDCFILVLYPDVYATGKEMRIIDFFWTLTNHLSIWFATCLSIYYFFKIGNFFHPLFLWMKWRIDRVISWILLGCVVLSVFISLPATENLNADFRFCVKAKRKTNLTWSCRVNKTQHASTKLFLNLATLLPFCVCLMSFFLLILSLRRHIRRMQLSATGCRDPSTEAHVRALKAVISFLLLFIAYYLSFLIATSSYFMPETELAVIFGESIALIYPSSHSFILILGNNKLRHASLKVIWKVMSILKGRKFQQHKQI
Put plainly: FLIPR calcium mobilization, hTAS2R7-transfected HEK-293T/Gα16gust44 cells. Particulars: response of hTAS2R7, calcium signal. On the procedure:
Ligand screening using an automated fluorometric imaging plate reader (Molecular Devices) was essentially done as described (Bufe B. et al. (2002) Nature Genetics 32: 397-401). Briefly: The cells were seeded at a density of 70,000±10,000 cells per well in 96-well microtiter plates. The cDNA of hTAS2R1, hTASR3, hTASR7 and hTASR40 supplemented with an amino terminal export tag corresponding to amino acids 1-45 of rat somatostatin receptor 3 and a carboxy terminal HSV-tag was transiently transfected into HEK-293T cells stably expressing the chimeric G-protein subunit Gα16gust44 (Ueda T. et al. (2003) J. Neurosci. 23: 7376-7380) using Lipofectamine2000 (Invitrogen). Expression rates were determined to be 20% for hTAS2R1; 35% for hTAS2R3, 14% for hTAS2R7 and 29% for hTAS2R40 by indirect immunocyclochemistry using monoclonal anti-HSV antibodies (Novagen) and secondary anti-mouse IgG antibodies coupled to Alexa 488 (Molecular probes) see (FIG. 1). 24-32 hours after transfection, the cells were then loaded for 1 hour with the calcium sensitive dye Fluo4-AM (2 μg/ml in DMEM, Molecular Probes). Cells were washed 3× in solution C1 (130 mM NaCl, 5 mM KCl, 10 mM Hepes, 2 mM CaCl2, and 10 mM Glucose, pH 7.4). Calcium mobilization was monitored by an automated fluorometric imaging plate reader (Molecular Devices). Ligands (Sigma-Aldrich) were dissolved in C1 solution. All data were collected from experiments carried out in triplicate. For dose-response curves, the obtained calcium signals were corrected for and normalized to background fluorescence ΔF/F=(F−F0)/F0 and baseline noise was subtracted.

Another assay concerns the target T4, hTAS2R40 (Homo sapiens, UniProt P59535).
T4 construct: export tag: amino acids 1-45 of rat somatostatin receptor 3 (N); expressed in transfected cells; host or cells: HEK-293T cells stably expressing the chimeric G-protein subunit Galpha16gust44
Put plainly: FLIPR calcium mobilization, hTAS2R40-transfected HEK-293T/Gα16gust44 cells. Particulars: response of hTAS2R40; calcium signal. As for the experimental part: as §1

The term EC50 denotes the concentration at which the effect is half-maximal.

T4 sequence (P59535 whole entry, the tested form may be a part): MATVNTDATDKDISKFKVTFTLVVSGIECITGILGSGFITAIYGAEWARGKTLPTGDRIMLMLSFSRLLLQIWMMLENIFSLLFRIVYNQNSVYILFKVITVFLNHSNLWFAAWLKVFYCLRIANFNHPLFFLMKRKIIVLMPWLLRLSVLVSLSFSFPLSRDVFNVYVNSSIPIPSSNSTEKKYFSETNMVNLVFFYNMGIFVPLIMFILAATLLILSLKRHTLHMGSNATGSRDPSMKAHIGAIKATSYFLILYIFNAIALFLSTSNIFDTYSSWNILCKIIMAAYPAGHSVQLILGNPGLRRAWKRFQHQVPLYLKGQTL
Experimental for hTAS2R1: Ligand screening using an automated fluorometric imaging plate reader (Molecular Devices) was essentially done as described (Bufe B. et al. (2002) Nature Genetics 32: 397-401). Briefly: The cells were seeded at a density of 70,000±10,000 cells per well in 96-well microtiter plates. The cDNA of hTAS2R1, hTASR3, hTASR7 and hTASR40 supplemented with an amino terminal export tag corresponding to amino acids 1-45 of rat somatostatin receptor 3 and a carboxy terminal HSV-tag was transiently transfected into HEK-293T cells stably expressing the chimeric G-protein subunit Gα16gust44 (Ueda T. et al. (2003) J. Neurosci. 23: 7376-7380) using Lipofectamine2000 (Invitrogen). […] 24-32 hours after transfection, the cells were then loaded for 1 hour with the calcium sensitive dye Fluo4-AM (2 μg/ml in DMEM, Molecular Probes). Cells were washed 3× in solution C1 (130 mM NaCl, 5 mM KCl, 10 mM Hepes, 2 mM CaCl2, and 10 mM Glucose, pH 7.4). Calcium mobilization was monitored by an automated fluorometric imaging plate reader (Molecular Devices). Ligands (Sigma-Aldrich) were dissolved in C1 solution. All data were collected from experiments carried out in triplicate. For dose-response curves, the obtained calcium signals were corrected for and normalized to background fluorescence ΔF/F=(F−F0)/F0 and baseline noise was subtracted.

For `O=C(N[C@H](CO)[C@H](O)c1ccc([N+](=O)[O-])cc1)C(Cl)Cl` [Chloramphenicol, chloramphenicol], on hTAS2R1, the max. amplitude is 9000 counts, the threshold is given as roughly 0.1 mM and the EC50 came to 200 µM.
Regarding `CN1CC(=O)NC1=N` [Creatinine, creatinine], at hTAS2R3, the max. amplitude is 5000 counts and the threshold is on record as roughly 30 mM. In addition, on hTAS2R7, the max. amplitude is 3000 counts and the threshold is recorded as roughly 10 mM.
Regarding `O=C(O)c1cc(=O)c2c(OCC(O)COc3cccc4oc(C(=O)O)cc(=O)c34)cccc2o1` [Cromolyn, cromolyn], at hTAS2R7, the max. amplitude is 3000 counts and the threshold is roughly 1 mM. Moreover, on hTAS2R7 (dose-response), the EC50 came to 9000 µM.
Turning to `C=C(C)[C@@H]1[C@H]2OC(=O)[C@@H]1[C@]1(O)C[C@H]3O[C@]34C(=O)O[C@H]2[C@]14C` [Picrotoxinin, picrotoxinin], at hTAS2R1, the max. amplitude stood at 2000 counts and the threshold is on record as roughly 0.0001 mM.
On to `COC(=O)[C@@H]1[C@H]2C[C@H]3c4[nH]c5ccccc5c4CCN3C[C@@H]2CC[C@@H]1O` [Yohimbine, yohimbine], for which, on hTAS2R1, the max. amplitude stood at 3000 counts and the threshold is on record as roughly 0.03 mM.
humulone: on hTAS2R1, the max. amplitude turned out to be 9000 counts, the threshold is listed as roughly 0.0001 mM and the EC50 was 0.9 µM. At hTAS2R40, the max. amplitude stood at 6000 counts and the threshold is given as less than 0.00003 mM.
